Laboratory results: patent publication US9127024B2 (Intrexon Corporation, priority 2013, dated 2015)
pEC50: −log10 of the molar value. Read-outs that look alike come from different tables or passages of the source.

Experiments:
[1] = target: RheoSwitch® (CHO-K1_RS-1 cells, firefly Luciferase reporter) (Choristoneura fumiferana, UniProt O77240); test: in vitro gene switch assay (fLUC Luciferase expression, potency screen); format: cell-based
Excerpt: Gene switch assays are disclosed, e.g., in U.S. Pat. Nos. 8,076,517; 7,456,315; 7,304,161; and 6,258,603.
CHO-K1 cells were stably transfected with a plasmid (RS-1, FIG. 1) coding for firefly Luciferase (fLUC) under the control of the RheoSwitch® resulting in the stable cell line CHO-K1_RS-1. A master cell bank was created containing approximately 100 vials at 5×10^6 cells per vial. One vial of CHO-K1_RS-1 was thawed and cultured for two weeks prior to each in vitro potency screening.
Twenty-four (24) hours prior to treatment with the control and test compounds the CHO-K1_RS-1 cells were seeded into white-opaque 384-well cell culture plates at 3,600 cells per well in 30 μl of culture medium. The cells were incubated in a humidified CO2 incubator at 37° C. until compound treatment.
Compounds were prepared at 25 mM in 100% dry DMSO and stored at room temperature in sealed 1 ml tubes prior to subsequent dilution and assay. On the day of cell treatment the tubes containing the control and test compounds were sorted and the ligands transferred to a 96-well polypropylene plate for subsequent dilution. The compounds were diluted in 100% dry DMSO in an 8-point, 10-fold dilution series ranging from 25 mM to 2.5 nM using the Biomek FX automated liquid handler.
The diluted compounds were then transferred to each well of 384-well polypropylene plate in quadruplicate resulting in a single 384-well plate with four replicates of each compound dilution in a different quadrant of the plate. Each well on the 384-well plate received 20 μl of diluted compound. The 384-well plates containing diluted compound and the plates containing cells in culture were loaded onto the Biomek FX and 30 nl of compound was delivered to each well containing cells using a 384-pin V&P Scientific Pin Tool. The resulting 1000-fold dilution (30 nl to 30 μl) generated a final dosing range of 25 μM to 2.5 pM in 0.1% DMSO. Two replicate plates were produced to supply a dedicated plate for the Luciferase expression assay and the APH cell viability assay.
The cells were incubated with the compound for 24 hours in a humidified CO2 incubator at 37° C. Following incubation, the cells were assayed for Luciferase expression (fLUC assay) using the Steady Glo assay from Promega. Cells were equilibrated to room temperature for 15 minutes prior to reagent addition. Thirty micro liters (30 μl) of assay reagent was added to each well of the 384-well plate using the Biomek FX. The reagent was incubated with the cells for 10-120 minutes prior to reading on a Molecular Devices Spectramax L luminometer. The assay reagents were prepared as per the manufacturer's instructions.
The Luciferase expression data was normalized to the baseline signal from cells treated with DMSO alone. The ratio of signal from treated cells to vehicle-treated cells was plotted and non-linear regress was performed using Graph Pad Prism software. EC50, (log)EC50 and Hill slope data was generated. Reporter gene expression, e.g., luciferase expression, serves as a proxy for the expression of a gene of interest. See, e.g., US 2009/0123441 and WO 2011/119773.

[2] = Pharmacokinetic (PK) study, oral gavage, plasma LC-MS/MS; settings: for Clearance: oral clearance
Procedure: Female Sprague Dawley rats were fasted for at least 8 hours (overnight) prior to oral dosing of the compound via gavage (10 mg/kg; vehicle=2 mg/mL of Capryol 90/Triacetin (1:1, v/v); 3 animals/compound) and weighed prior to dosing. The correct volume of the appropriate formulation was administered based on that day's (animal) body weight. Body weight, dose volume, and dosing time was recorded for each animal. Animals were not fed for at least 4 hours following activator ligand administration.
Approximately 200 μL/blood sample was collected from the catheter sample points in EDTA tubes at each time point from each animal. The exact time of blood collection was recorded for each animal Blood samples were held at 4° C. (wet ice) starting immediately after collection and were centrifuged within 15 minutes from the collection for 12 minutes at 2500 rpm. After centrifugation, plasma samples were stored at ^−80° C. until assay. Sample times were as follows: Day 0: 0, 0.5, 1, 2, 3, 4, 6 and 8 hours; Day 1: 24 hours.
LC-MS/MS Method: Liquid chromatography tandem mass spectrometry with protein precipitation method was used to quantify the compound in rat plasma samples collected from all animals dosed with the ligand. Linearity range was from 1 ng/mL to 1000 ng/mL, with correlation coefficient for calibration curves above 0.99 and analyte quantified within ±15% of target at all calibrator concentrations.
The plasma ligand concentration was calculated by extrapolating the area under the curve values for the samples from the standard curve generated by the Analyst® software program. The ng/mL values for the plasma samples representing all the animals were used to generate the pharmacokinetic (PK) parameters.

[3] = read-out: fLUC assay EC50, 24 hours with compound, 25 μM to 2.5 pM, figure in parentheses after a value not defined
[4] = female, Sprague Dawley, rat, po, 10 mg/kg
[5] = female Sprague Dawley rats, oral gavage 10 mg/kg, Capryol 90/Triacetin (1:1, v/v)
[6] = female, Sprague Dawley, rat, po, 10 mg/kg, AUC0−t, female Sprague Dawley rats, oral gavage 10 mg/kg, Capryol 90/Triacetin (1:1, v/v)
[7] = female, Sprague Dawley, rat, po, 10 mg/kg, Cmax, female Sprague Dawley rats, oral gavage 10 mg/kg, Capryol 90/Triacetin (1:1, v/v)
[8] = female, Sprague Dawley, rat, po, 10 mg/kg, Tmax, female Sprague Dawley rats, oral gavage 10 mg/kg, Capryol 90/Triacetin (1:1, v/v)
[9] = female, Sprague Dawley, rat, po, 10 mg/kg, half-life, female Sprague Dawley rats, oral gavage 10 mg/kg, Capryol 90/Triacetin (1:1, v/v)
[10] = female Sprague Dawley rats, oral gavage 10 mg/kg, Capryol 90/Triacetin (1:1, v/v), listed as Cpd. No. 13 (Lot # 1), 10 mg/kg
[11] = female Sprague Dawley rats, oral gavage 10 mg/kg, Capryol 90/Triacetin (1:1, v/v), listed as Cpd. No. 13 (Lot # 2), 10 mg/kg
[12] = read-out: fLUC assay EC50 Run 1, 24 hours with compound, Run 1
[13] = read-out: fLUC assay EC50 Run 2, 24 hours with compound, Run 2

RheoSwitch® (CHO-K1_RS-1 cells, firefly Luciferase reporter), sequence (O77240 1-513): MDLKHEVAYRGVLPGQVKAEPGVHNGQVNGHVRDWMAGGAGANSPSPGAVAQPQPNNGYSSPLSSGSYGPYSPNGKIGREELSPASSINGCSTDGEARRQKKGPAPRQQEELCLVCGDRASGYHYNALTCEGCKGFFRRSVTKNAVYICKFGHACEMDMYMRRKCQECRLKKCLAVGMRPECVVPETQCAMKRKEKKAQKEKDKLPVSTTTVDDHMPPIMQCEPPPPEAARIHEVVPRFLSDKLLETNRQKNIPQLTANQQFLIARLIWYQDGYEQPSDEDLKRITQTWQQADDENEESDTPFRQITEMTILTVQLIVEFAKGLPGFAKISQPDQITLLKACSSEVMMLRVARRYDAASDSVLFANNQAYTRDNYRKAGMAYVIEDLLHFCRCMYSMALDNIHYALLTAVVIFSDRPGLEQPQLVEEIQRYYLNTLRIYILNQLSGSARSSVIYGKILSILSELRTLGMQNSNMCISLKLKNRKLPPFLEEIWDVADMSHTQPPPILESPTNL

`Cc1cc(C)cc(C(=O)N(NC(=O)c2ccc3c(c2C)OCCOB3O)C(C)(C)C)c1` showed a pEC50 [1, 3] of 6.59, an AUC(0-t) [2, 4] of 13200 ng·h/mL and a Cmax [2, 4] of 1280 ng/mL. For the same compound, the Tmax [2, 4] was 2.3 h, the half-life [2, 4] was 11 h and the Clearance [2, 5] was 10.2 mL/min/kg.
With `CCC[C@@H](N(NC(=O)c1cccc(OC)c1C)C(=O)c1cc(C)cc(C)c1)C(C)(C)C` [Cpd. A, reference compound] the AUC(0-t) [2, 6] was 773 ng·h/mL, the Cmax [2, 7] was 255 ng/mL and the Tmax [2, 8] was 4 h. For the same compound, the half-life [2, 9] was 2.1 h and the Clearance [2, 5] was 213.1 mL/min/kg.
`CCC[C@@H](N(NC(=O)c1cccc(OC)c1CC)C(=O)c1cc(C)cc(C)c1)C(C)(C)C` [Cpd. B, reference compound] showed an AUC(0-t) [2, 6] of 888 ng·h/mL, a Cmax [2, 7] of 116 ng/mL and a Tmax [2, 8] of 3.7 h. For the same compound, the half-life [2, 9] was 5.4 h and the Clearance [2, 5] was 183.83 mL/min/kg.
Compound `Cc1cc(C)cc(C(=O)N(NC(=O)c2cccc(B(O)O)c2F)C(C)(C)C)c1` [Cpd. No. 5] has a pEC50 [1, 3] of 6.52, an AUC(0-t) [2, 6] of 18800 ng·h/mL and a Cmax [2, 7] of 1890 ng/mL. The Tmax [2, 8] was 4 h, the half-life [2, 9] was 4 h and the Clearance [2, 5] was 8.88 mL/min/kg.
With `CCC[C@@H](N(NC(=O)c1ccc(B(O)O)cc1F)C(=O)c1cc(C)cc(C)c1)C(C)(C)C` [Cpd. No. 13, (R)-(4-(2-(3,5-dimethylbenzoyl)-2-(2,2-dimethylhexan-3-yl)hydrazinecarbonyl)-3-fluorophenyl)boronic acid] the pEC50 [1, 3] was 7.19, the “AUC0−t” value [2, 10] was 10579 ng·h/mL and the Cmax [2, 10] was 1415 ng/mL. The “AUC0−t” value [2, 11] was 60407 ng·h/mL, the Cmax [2, 11] was 7060 ng/mL and the Tmax [2, 11] was 3.3 h. For the same compound, the half-life [2, 11] was 4.3 h, the Tmax [2, 8] was 2.7 h and the half-life [2, 9] was 3.2 h. The Clearance [2, 10] was 15.6 mL/min/kg and the Clearance [2, 11] was 2.82 mL/min/kg.
`CCC[C@@H](N(NC(=O)c1ccc(B(O)O)c(F)c1)C(=O)c1cc(C)cc(C)c1)C(C)(C)C` [Cpd. No. 22, (R)-(4-(2-(3,5-dimethylbenzoyl)-2-(2,2-dimethylhexan-3-yl)hydrazinecarbonyl)-2-fluorophenyl)boronic acid] showed a pEC50 [1, 3] of 6.98, an AUC(0-t) [2, 6] of 25000 ng·h/mL and a Cmax [2, 7] of 2730 ng/mL. For the same compound, the Tmax [2, 8] was 3 h, the half-life [2, 9] was 5.6 h and the Clearance [2, 5] was 6.78 mL/min/kg.
In the case of `Cc1cc(C)cc(C(=O)N(NC(=O)c2ccc3c(c2C)OCCNB3O)C(C)(C)C)c1` [Cpd. No. 91, N′-(tert-butyl)-N′-(3,5-dimethylbenzoyl)-1-hydroxy-6-methyl-1,2,3,4-tetrahydrobenzo[f][1,4,5]oxazaborepine-7-carbohydrazide], the pEC50 [1, 12] was 6.88 and the pEC50 [1, 13] was 7.06.
With `CC[C@@H](N(NC(=O)c1ccc2c(c1C)OCCNB2O)C(=O)c1cc(C)cc(C)c1)C(C)(C)C` [Cpd. No. 92, (R)-N′-(3,5-dimethylbenzoyl)-N′-(2,2-dimethylpentan-3-yl)-1-hydroxy-6-methyl-1,2,3,4-tetrahydrobenzo[f][1,4,5]oxazaborepine-7-carbohydrazide] the pEC50 [1, 12] was 6.73 and the pEC50 [1, 13] was 6.93.
In the case of `CCC[C@@H](N(NC(=O)c1ccc([B-](F)(F)F)cc1F)C(=O)c1cc(C)cc(C)c1)C(C)(C)C` [Cpd. No. 93, potassium (R)-(4-(2-(3,5-dimethylbenzoyl)-2-(2,2-dimethylhexan-3-yl)hydrazine-1-carbonyl)-3-fluorophenyl)trifluoroborate], the pEC50 [1, 12] was 7.18 and the pEC50 [1, 13] was 6.91.
In the case of `COCc1ccc(C(=O)NN(C(=O)c2cc(C)cc(C)c2)C(C)(C)C)c(F)c1B1OC(C)(C)C(C)(C)O1` [Cpd. No. 94, N′-(tert-butyl)-N′-(3,5-dimethylbenzoyl)-2-fluoro-4-(methoxymethyl)-3-(4,4,5,5-tetramethyl-1,3,2-dioxaborolan-2-yl)benzohydrazide], the pEC50 [1, 12] was 6.11 and the pEC50 [1, 13] was 5.78.
With `CCC[C@@H](N(NC(=O)c1ccc(B(O)O)cc1C(C)C)C(=O)c1cc(C)cc(C)c1)C(C)(C)C` [compound 10] the pEC50 [1, 3] was 5.91.
`Cc1cc(C)cc(C(=O)N(NC(=O)c2ccc(B(O)O)cc2C(C)C)C(C)(C)C)c1` [compound 11] showed a pEC50 [1, 3] of 4.85.
`Cc1cc(C)cc(C(=O)N(NC(=O)c2ccc(B(O)O)cc2F)C(C)(C)C)c1` [compound 12] showed a pEC50 [1, 3] of 6.57.
In the case of `[2H]C([2H])([2H])c1cc(C(=O)N(NC(=O)c2ccc(B(O)O)cc2F)[C@H](CC)C(C)(C)C)cc(C([2H])([2H])[2H])c1` [compound 15], the pEC50 [1, 3] was 7.28.
`CC[C@@H](N(NC(=O)c1ccc(B(O)O)cc1Cl)C(=O)c1cc(C)cc(C)c1)C(C)(C)C` [compound 20] showed a pEC50 [1, 3] of 6.74.
`Cc1cc(C)cc(C(=O)N(NC(=O)c2ccc(B(O)O)cc2Cl)C(C)(C)C)c1` [compound 21] gave a pEC50 [1, 3] of 5.79.
`CCC[C@@H](N(NC(=O)c1ccc(CCCB2OC(C)(C)C(C)(C)O2)c(OC(F)F)c1C)C(=O)c1cc(C)cc(C)c1)C(C)(C)C` [compound 30] gave a pEC50 [1, 3] of 7.29.
`CC[C@@H](N(NC(=O)c1cccc(OC)c1C)C(=O)c1cc(C)cc(B2OC(C)(C)C(C)(C)O2)c1)C(C)(C)C` [compound 39] showed a pEC50 [1, 3] of 6.77.
`CCc1c(OC)cccc1C(=O)NN(C(=O)c1ccc(B(O)O)cc1)C(C)(C)C` [compound 40] gave a pEC50 [1, 3] of 5.28.
`Cc1cc(C)cc(C(=O)N(NC(=O)c2cccc(B3OC(C)(C)C(C)(C)O3)c2C)C(C)(C)C)c1` [compound 43] showed a pEC50 [1, 3] of 5.85.
In the case of `CC[C@@H](N(NC(=O)c1ccc2c(c1)B(O)OC2)C(=O)c1cc(C)cc(C)c1)C(C)(C)C` [compound 52], the pEC50 [1, 3] was 6.54.
`CC[C@H](N(NC(=O)c1ccc2c(c1)B(O)OC2)C(=O)c1cc(C)cc(C)c1)C(C)(C)C` [compound 53] showed a pEC50 [1, 3] of 6.00.
`[2H]C([2H])([2H])c1cc(C(=O)N(NC(=O)c2ccc3c(c2F)B(O)OC3)[C@H](CC)C(C)(C)C)cc(C([2H])([2H])[2H])c1` [compound 60] gave a pEC50 [1, 3] of 6.91.
`Cc1cc(C)cc(C(=O)N(CC(C)(C)C)NC(=O)c2ccc3c(c2C)OCCOB3O)c1` [compound 71] showed a pEC50 [1, 3] of 6.37.
Work on `Cc1cc(Cl)cc(C(=O)N(CC(C)(C)C)NC(=O)c2ccc3c(c2C)OCCOB3O)c1` [compound 72] yielded a pEC50 [1, 3] of 6.35.
`CCC(C)(C)N(NC(=O)c1ccc2c(c1C)OCCOB2O)C(=O)c1cc(C)cc(C)c1` [compound 76] showed a pEC50 [1, 3] of 6.45.
In the case of `[2H]C([2H])([2H])c1cc(C(=O)N(NC(=O)c2ccc3c(c2C)OCCOB3O)C(C)(C)CC)cc(C([2H])([2H])[2H])c1` [compound 77], the pEC50 [1, 3] was 6.74.
For `CC[C@H](N(NC(=O)c1ccc2c(c1C)OCCOB2O)C(=O)c1cc(C)cc(C)c1)C(C)(C)C` [compound 80], the pEC50 [1, 3] was 6.06.
Compound `[2H]C([2H])([2H])c1cc(C(=O)N(NC(=O)c2ccc3c(c2C)OCCOB3O)[C@@H](CC)C(C)(C)C)cc(C([2H])([2H])[2H])c1` [compound 81] has a pEC50 [1, 3] of 6.25.
`CCOCc1ccc(C(=O)NN(C(=O)c2cc(C)cc(C)c2)[C@H](CC)C(C)(C)C)c(F)c1B(O)O` [compound 90, (R)-(3-(2-(3,5-dimethylbenzoyl)-2-(2,2-dimethylpentan-3-yl)hydrazine-1-carbonyl)-6-(ethoxymethyl)-2-fluorophenyl)boronic acid] gave a pEC50 [1, 12] of 6.41 and a pEC50 [1, 13] of roughly 6.57.
